In general, IC50 refers to the concentration at which inhibition is half-maximal.

For assay [1], the system named is Panc-1 pancreatic cancer cell line. Briefly: In vitro antiproliferative activity, Panc-1 pancreatic cancer cell line. It counts as cell-based, human. The following applies: Homo sapiens, Table 1. How it is done:
(§1) Substituted β-carbolines and analog compounds 39 to 57 were tested for antiproliferative activity against HPAC, Mia-PaCa2 and Panc-1 pancreatic cancer cell lines and MCF-7 and MDA-MB-468 breast cancer cell lines. Table 2 lists the IC50 values for the substituted β-carbolines and analogs thereof.

Assay [2] relates to HCT116 colon cancer cells. Briefly: In vitro antiproliferative activity, HCT116 colon cancer cells. It is filed as cell-based. The following applies: Homo sapiens, HCT-116, Table 1. The procedure:
(§2) Substituted β-carboline compounds 4 to 38 were tested for antiproliferative activity against HCT116 colon cancer cells and HPAC, Mia-PaCa2 and Panc-1 pancreatic cancer cell lines. Table 1 lists the IC50 values for the substituted β-carbolines.

The test system of assay [3] is HPAC pancreatic cancer cell line. The experiment in a line: In vitro antiproliferative activity, HPAC pancreatic cancer cell line. To be noted: Homo sapiens, Table 1. It counts as cell-based. The procedure:
as §2, §1

For assay [4], the system named is Mia-PaCa2 pancreatic cancer cell line. Briefly: In vitro antiproliferative activity, Mia-PaCa2 pancreatic cancer cell line. To be noted: Homo sapiens, MIA PaCa-2, Table 1. It is filed as cell-based. How it is done:
as §2, §1

With `COc1ccc2c(-c3nccc4c3[nH]c3ccc(OC)cc34)cccc2c1` [Compound 35, 6-Methoxy-1-(6-methoxy-naphthalen-1-yl)-9H-β-carboline], the IC50 in assay [1] is above 50 µM; in assay [2] it was 2.22 µM; in assay [3] it was 23.1 µM; in assay [4] it was 47.2 µM.
Turning to `COc1ccc2[nH]c3c(-c4ccccc4)nccc3c2c1` [Compound 31, 6-Methoxy-1-phenyl-9H-β-carboline], the IC50 was above 50 µM in assay [1], 33.5 µM in assay [2], 44.8 µM in assay [3] and 37.1 µM in assay [4].
For `COc1ccc2c(c1)[nH]c1c(-c3cc4ccccc4c4ccccc34)nccc12` [Compound 30, 7-Methoxy-1-phenanthren-9-yl-9H-β-carboline] the same measures were above 50 µM, 0.87 µM, 5.67 µM and 1.57 µM.
`COc1ccc2c(c1)[nH]c1c(-c3ccoc3)nccc12` [Compound 8, 1-Furan-3-yl-7-methoxy-9H-β-carboline]: the IC50 in assay [1] was above 50 µM; in assay [3], 45.1 µM; in assay [4], 38.3 µM.
With `COc1ccc2c(c1)[nH]c1c(-c3cccc4cnccc34)nccc12` [Compound 24, 1-Isoquinolin-5-yl-7-methoxy-9H-β-carboline], the IC50 is above 50 µM in assay [1], 15.1 µM in assay [2], 34.4 µM in assay [3] and 24.1 µM in assay [4].
Consider `COc1ccc2[nH]c3c(-c4cccc5cnccc45)nccc3c2c1` [Compound 23, 1-Isoquinolin-5-yl-6-methoxy-9H-β-carboline], for which the IC50 in assay [1] was determined as 21.2 µM; in assay [2] it was 9 µM; in assay [3], 15.9 µM; in assay [4] it was 9.81 µM.
On to `COc1ccc2c(c1)[nH]c1c(-c3ccc4ccccc4c3)nccc12` [Compound 26, 7-Methoxy-1-naphthalen-2-yl-9H-β-carboline], for which the IC50 stood at 48 µM in assay [1], 17.1 µM in assay [2], 20.8 µM in assay [3] and 21.7 µM in assay [4].
On to `COc1ccc2[nH]c3c(-c4ccc(-c5ccccn5)cc4)nccc3c2c1` [Compound 38, 6-Methoxy-1-(4-pyridin-2-yl-phenyl)-9H-β-carboline], for which the IC50 is 47.4 µM in assay [1], 3 µM in assay [2], 17 µM in assay [3] and 48.4 µM in assay [4].
In the case of `COc1ccc2[nH]c3c(-c4ccc5ccccc5c4)nccc3c2c1` [Compound 25, 6-Methoxy-1-naphthalen-2-yl-9H-β-carboline], the IC50 in assay [1] was found to be 8.4 µM; in assay [2] it was 0.67 µM; in assay [3] it was 5.57 µM; in assay [4], 1.36 µM.
With `COc1ccc2[nH]c3c(-c4cncc5ccccc45)nccc3c2c1` [Compound 15, 1-Isoquinolin-4-yl-6-methoxy-9H-β-carboline], the IC50 in assay [1] is 10.5 µM; in assay [2], 5.7 µM; in assay [3] it was 7.37 µM; in assay [4] it was 4.7 µM.
For `COc1ccc2[nH]c3c(-c4cc5ccccc5c5ccccc45)nccc3c2c1` [Compound 29, 6-Methoxy-1-phenanthren-9-yl-9H-β-carboline] the same measures were 18 µM, 0.53 µM, 0.54 µM and 0.84 µM.
On to `COc1ccc2c(c1)[nH]c1c(-c3ccccc3)nccc12` [Compound 32, 7-Methoxy-1-phenyl-9H-β-carboline], for which the IC50 in assay [1] is above 50 µM; in assay [2], 31.4 µM; in assay [3], 34.3 µM; in assay [4], 34.3 µM.
In the case of `COc1ccc2c(c1)[nH]c1c(-c3cccc4ncccc34)nccc12` [Compound 22, 7-Methoxy-1-quinolin-5-yl-9H-β-carboline], the IC50 in assay [1] is above 50 µM; in assay [2] it was 12.8 µM; in assay [3] it was above 50 µM; in assay [4], 28.6 µM.
As to `COc1ccc2[nH]c3c(-c4cccc5nccnc45)nccc3c2c1` [Compound 13, 6-Methoxy-1-quinoxalin-5-yl-9H-β-carboline], the IC50 in assay [1] was above 50 µM; in assay [2], 26.1 µM; in assay [3] it was above 50 µM; in assay [4], above 50 µM.
In the case of `COc1ccc2c(c1)[nH]c1c(-c3cccnc3)nccc12` [Compound 5, 1-Pyridin-3-yl-7-methoxy-9H-β-carboline], the half-maximal inhibitory concentration (IC50) in assay [1] was above 50 µM; in assay [3] it was above 50 µM; in assay [4] it was 44.8 µM.
Turning to `COc1ccc2c(c1)[nH]c1c(-c3cccc4ccccc34)nccc12` [Compound 20, 7-Methoxy-1-naphthalen-1-yl-9H-β-carboline], the IC50 in assay [1] is above 50 µM; in assay [2] it was 3.6 µM; in assay [3], 25.5 µM; in assay [4], 6.61 µM.
Turning to `COc1ccc2[nH]c3c(-c4cnc5ccccc5c4)nccc3c2c1` [Compound 17, 6-Methoxy-1-quinolin-3-yl-9H-β-carboline], the IC50 was 29 µM in assay [1], 14.1 µM in assay [2], 21.9 µM in assay [3] and 17 µM in assay [4].
For `Cc1cccc2c1[nH]c1c(-c3cccc4ccccc34)nccc12` [Compound 37, 8-Methyl-1-naphthalen-1-yl-9H-β-carboline] the same measures were above 50 µM, 2.6 µM, 6.39 µM and 3.54 µM.
For `COc1ccc2c(c1)[nH]c1c(-c3c(C)ccc4ccccc34)nccc12` [Compound 34, 7-Methoxy-1-(2-methyl-naphthalen-1-yl)-9H-β-carboline] the same measures were 33.3 µM, 2.43 µM, 17.6 µM and 20.7 µM.
The corresponding values for `COc1ccc2[nH]c3c(-c4c(C)ccc5ccccc45)nccc3c2c1` [Compound 33, 6-Methoxy-1-(2-methyl-naphthalen-1-yl)-9H-β-carboline] are 19.8 µM, 1.8 µM, 9.38 µM and 2.23 µM.
Consider `COc1ccc2[nH]c3c(-c4cccc5ncccc45)nccc3c2c1` [Compound 21, 6-Methoxy-1-quinolin-5-yl-9H-β-carboline], for which the IC50 in assay [1] was determined as 7.52 µM; in assay [2] it was 0.9 µM; in assay [3] it was 5.83 µM; in assay [4] it was 2.58 µM.
The corresponding values for `COc1ccc2c(c1)[nH]c1c(-c3cncc4ccccc34)nccc12` [Compound 16, 1-Isoquinolin-4-yl-7-methoxy-9H-β-carboline] are above 50 µM, 33.5 µM, 44.9 µM and 36.7 µM.
On to `c1ccc(COc2ccc3[nH]c4c(-c5cccc6ccccc56)nccc4c3c2)cc1` [Compound 36, 6-Benzyloxy-1-naphthalen-1-yl-9H-β-carboline], for which the half-maximal inhibitory concentration (IC50) in assay [1] came to 0.57 µM; in assay [3] it was 0.83 µM; in assay [4], 0.51 µM.
With `COc1ccc2c(c1)[nH]c1c(-c3nccc4ccccc34)nccc12` [Compound 12, 1-Isoquinolin-1-yl-7-methoxy-9H-β-carboline], the IC50 is above 50 µM in assay [1], 34.8 µM in assay [3] and 49.2 µM in assay [4].
